We go through two molecules from US20100227856A1, “NOVEL COMPOUNDS” (SMITHKLINE BEECHAM CORPORATION, priority 2006, published 2010).

This assay concerns the target T1, TRPV4 channel receptors (Bos taurus, UniProt A0A8F4X677).
T1 construct: obtained using this method in bovine articular chondrocytes; endogenous in cells; host or cells: bovine articular chondrocytes
In words: Ca2+ influx in bovine articular chondrocytes (Fura-2 fluorescence, FlexStation). Format: cell-based. The source says: Ca^2+ influx mediated through TRPV4 channel receptors can be measured using articular chondrocytes from such species as, but not limited to, human, rat, canine, rabbit, monkey, and bovine, using standard techniques in the art such as, but not limited to, Fura-2 (Invitrogen/Molecular Probes, Eugene, Oreg.) fluorescence using a FlexStation (manufactured by Molecular Devices, Sunnyvale, Calif.). Table 1 lists biological data for several representative compounds obtained using this method in bovine articular chondrocytes.

T1 sequence (A0A8F4X677 1-871): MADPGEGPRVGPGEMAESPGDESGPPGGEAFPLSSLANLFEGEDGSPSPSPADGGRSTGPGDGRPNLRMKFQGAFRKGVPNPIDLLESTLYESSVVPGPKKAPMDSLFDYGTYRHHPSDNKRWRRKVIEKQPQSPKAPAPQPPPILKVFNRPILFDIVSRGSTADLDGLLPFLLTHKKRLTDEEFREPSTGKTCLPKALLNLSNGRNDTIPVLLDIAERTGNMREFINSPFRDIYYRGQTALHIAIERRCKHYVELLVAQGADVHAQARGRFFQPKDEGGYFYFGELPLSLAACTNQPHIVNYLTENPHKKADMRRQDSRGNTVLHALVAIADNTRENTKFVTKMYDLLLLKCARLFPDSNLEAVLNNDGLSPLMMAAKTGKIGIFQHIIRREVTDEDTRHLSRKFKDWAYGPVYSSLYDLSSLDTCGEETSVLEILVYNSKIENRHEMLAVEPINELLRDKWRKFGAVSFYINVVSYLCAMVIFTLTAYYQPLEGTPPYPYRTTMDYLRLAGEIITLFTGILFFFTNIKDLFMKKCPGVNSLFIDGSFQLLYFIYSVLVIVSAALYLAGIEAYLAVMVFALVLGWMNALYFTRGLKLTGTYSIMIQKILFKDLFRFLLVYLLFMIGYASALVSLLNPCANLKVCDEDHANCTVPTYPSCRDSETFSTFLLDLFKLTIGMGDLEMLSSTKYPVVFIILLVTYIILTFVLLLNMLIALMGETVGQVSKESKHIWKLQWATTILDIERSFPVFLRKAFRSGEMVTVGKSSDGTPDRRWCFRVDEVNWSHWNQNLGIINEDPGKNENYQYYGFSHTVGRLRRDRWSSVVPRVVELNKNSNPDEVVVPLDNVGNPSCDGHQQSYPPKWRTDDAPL

`CC(C)C[C@H](NC(=O)c1cc2ccccc2s1)C(=O)NCCC1CCCCN1S(=O)(=O)c1ccc(Cl)cc1Cl` (stereo partly drawn) [Example 3, N-((1S)-1-{[(2-{1-[(2,4-Dichlorophenyl)sulfonyl]-2-piperidinyl}ethyl)amino]carbonyl}-3-methylbutyl)-1-benzothiophene-2-carboxamide] registered an EC50 of 10 to 100 nM.

In the case of `CC(C)C[C@H](NC(=O)c1cc2ccccc2s1)C(=O)NCC1CCCCN1S(=O)(=O)c1ccccc1C#N` (stereo partly drawn) [Example 1, N-((1S)-1-{[({1-[(2-cyanophenyl)sulfonyl]-2-piperidinyl}methyl)amino]carbonyl}-3-methylbutyl)-1-benzothiophene-2-carboxamide], the EC50 is 110 to 2000 nM.
